Assay results reported in publication PMC2358973, “A Cysteine Protease Is Critical for Babesia spp. Transmission in Haemaphysalis Ticks” (PLoS Pathogens, 2008).

Target: T1, longipain (Haemaphysalis longicornis, UniProt A1IHG0)
T1 construct: gene HlCath; partial coding region (pPICZC) expressed in Pichia pastoris GS115, HiTrap chelating column purified; precursor 341 residues with 17-residue signal peptide
Experiment: inhibition of fluorogenic substrate hydrolysis
Format: biochemical
Settings: read-out: Inhibition (%) relative to control / Z-F-R-MCA
From the text: inhibition of fluorogenic substrate hydrolysis on longipain

T1 sequence (A1IHG0 22-341 limits assumed): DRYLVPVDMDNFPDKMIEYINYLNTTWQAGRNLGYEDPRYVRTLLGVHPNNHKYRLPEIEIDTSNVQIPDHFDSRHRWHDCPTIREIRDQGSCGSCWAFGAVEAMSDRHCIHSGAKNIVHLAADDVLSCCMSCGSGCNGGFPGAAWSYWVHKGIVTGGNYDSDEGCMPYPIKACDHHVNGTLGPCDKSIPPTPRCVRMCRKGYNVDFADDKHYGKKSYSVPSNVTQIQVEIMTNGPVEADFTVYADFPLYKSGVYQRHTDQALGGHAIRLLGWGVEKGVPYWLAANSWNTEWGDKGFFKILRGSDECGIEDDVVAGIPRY

inhibition at 10 µM: 84 ± 0.2%
Structure (SMILES): CC(C)C[C@H](NC(=O)[C@@H]1O[C@H]1C(=O)O)C(=O)NCCCCNC(=N)N [E-64]
